Test results reported in patent US4489091A, “Antilipemic and anti-inflammatory compositions containing sulfonate derivatives” (Taiho Pharmaceutical Company Limited, priority 1980, dated 1984).
Like-named read-outs stand apart in the source and are kept apart here.

Columns and labels:
Acute toxicity = settings: rat, in vivo
Excerpt: Six-week-old male Wistar rats weighing 180 to 200 g are used, 5 rats in each group. Each compound of the invention is suspended in a 30% aqueous solution of polyethylene glycol 6000 and orally given to the rat at the dosage shown in Table 2. The animals are checked for poisoning, body weight and survival to determine the LD50 value.

cholesterol = experiment: Antilipemic effect: percent total cholesterol inhibition in plasma of rats given an olive oil-cholesterol mixture; format: in vivo, male Wistar rats; settings: plasma 8 hours after dosing, Wistar rat; for inhibition in vivo at 100 mg/kg: oral 100 mg/kg, read-out: Anti-lipemic effect, CS (percent cholesterol inhibition)
Procedure: (§1) The above compounds of this invention are tested by the following methods for antilipemic effect and acute toxicity. In the column of antilipemic effect in the table, the asterisked values indicate the effect achieved by orally giving 200 mg/kg of the compounds concerned, and the unmarked values, the effect attained by orally giving 100 mg/kg. In the same column, "TG" stands for percent triglycerides inhibition and "CS" percent cholesterol inhibition.
(§2) Seven-week-old male Wistar rats weighing 200 to 220 g are used, 5 rats in each group.
(§3) Each compound of the invention (100 mg or 200 mg) is dissolved in 10 ml of an olive oil-cholesterol mixture (containing 15% of cholesterol). The mixture containing the compound is orally given to the rat with a probe at a dose of 10 ml/kg. Two or 8 hours thereafter, 6 ml of whole blood is withdrawn from the descending aorta of the rat under ether anesthesia with a syringe containing heparin. The blood is centrifuged at 5° C. and 3000 r.p.m. to obtain the plasma. The plasma collected after the lapse of 2 hours is used for determining the triglycerides content, and the plasma obtained 8 hours later for determining the total cholesterol content, using a triglycerides measuring kit (trade mark "Triglycerides-B Test Wako," product of Wako Junyaku Co., Ltd., Japan) and a total cholesterol measuring kit (trade mark "Cholesterol Test Wako," product of the same), respectively. The olive oil-cholesterol mixture containing no compound is similarly given to a control group, while no treatment is conducted for a normal group. The triglycerides and total cholesterol contents in the plasma are also determined for these groups in the same manner as is the case with the test groups.
(§4) The present hyperlipidemia inhibition achieved by the present compound is given by [formula] in which A is the triglycerides (cholesterol) content of the control group, B is the triglycerides (cholesterol) content of the normal group, and C is the triglycerides (cholesterol) content of the group to which the present compound is given.

triglycerides = experiment: Antilipemic effect: percent triglycerides inhibition in plasma of rats given an olive oil-cholesterol mixture; format: in vivo, male Wistar rats; settings: plasma 2 hours after dosing, Wistar rat; for inhibition in vivo at 100 mg/kg: oral 100 mg/kg, read-out: Anti-lipemic effect, TG (percent triglycerides inhibition)
Procedure: as §1, §2, §3, §4

[1] = oral, six-week-old male Wistar rats, suspended in 30% aqueous polyethylene glycol 6000, read-out: LD50

Row | SMILES | LD50 (Acute toxicity; po) [mg/kg] | inhibition in vivo at 100 mg/kg (cholesterol) [%] | inhibition in vivo at 100 mg/kg (triglycerides) [%] | LD50 (Acute toxicity; [1]) [mg/kg] | Anti-lipemic effect, CS (percent cholesterol inhibition), asterisked (cholesterol; oral 200 mg/kg (asterisked values)) [%] | inhibition in vivo at 200 mg/kg (triglycerides; oral 200 mg/kg (asterisked values), read-out: Anti-lipemic effect, TG (percent triglycerides inhibition), asterisked) [%]
1 | CCCCC(=O)COS(=O)(=O)c1c(C)cc(C)cc1C [Compound 74] | > 3000 | 87 | 77 |  |  | 
2 | CCCCCC(=O)COS(=O)(=O)c1c(C)cc(C)cc1C [Compound 75] | > 3000 | 60 | 53 |  |  | 
3 | CCCCCCC(=O)COS(=O)(=O)c1c(C)cc(C)cc1C [Compound 76] | > 4000 | 62 | 55 |  |  | 
4 | CCCCCCCC(=O)COS(=O)(=O)c1c(C)cc(C)cc1C [Compound 77, 2-oxononanyl-2,4,6-trimethylbenzene sulfonate] |  | 74 | 80 | > 4000 |  | 
5 | Cc1cc(C)c(S(=O)(=O)OCC(=O)CC(C)(C)C)c(C)c1 [Compound 82] | > 3000 | 66 | 56 |  |  | 
6 | Cc1cc(C)c(S(=O)(=O)OCC(=O)CCC(C)C)c(C)c1 [Compound 83] | > 3000 | 71 | 68 |  |  | 
7 | CCCC(=O)COS(=O)(=O)c1c(C)cc(C)c(C)c1C [Compound 95, 2-oxopentyl-2,3,4,6-tetramethylbenzene sulfonate] |  | 97 | 96 | > 3000 |  | 
8 | CCCCCCC(=O)COS(=O)(=O)c1c(C)cc(C)c(C)c1C [Compound 97] | > 3000 | 47 | 55 |  |  | 
9 | CCC(C)C(=O)COS(=O)(=O)c1c(C)cc(C)c(C)c1C (stereo not drawn) [Compound 99] | > 3000 | 78 | 72 |  |  | 
10 | CCCCC(CC)C(=O)COS(=O)(=O)c1c(C)cc(C)c(C)c1C (stereo not drawn) [Compound 100] | > 4000 |  |  |  | 42 | 66
11 | CCCC(=O)COS(=O)(=O)c1ccc(C)cc1C [Compound 112] | > 2000 | 62 | 80 |  |  | 
12 | CCCC(=O)COS(=O)(=O)c1c(CC)cc(CC)cc1CC [Compound 114] | > 3000 | 76 | 87 |  |  | 
13 | CCCC(=O)COS(=O)(=O)c1ccc(C)c(C)c1C [Compound 117] | > 2000 | 71 | 70 |  |  | 
14 | CCC(CC)C(=O)COS(=O)(=O)c1ccc(C)cc1 [Compound 121] | > 3000 | 66 | 63 |  |  | 
15 | CCCC(C)C(=O)COS(=O)(=O)c1ccc(C)cc1 (stereo not drawn) [Compound 122] | > 3000 | 51 | 65 |  |  | 
16 | CCCC(CC)C(=O)COS(=O)(=O)c1ccc(C)cc1 (stereo not drawn) [Compound 123] | > 3000 | 60 | 67 |  |  | 
17 | CCCC(CCC)C(=O)COS(=O)(=O)c1ccc(C)cc1 [Compound 124] | > 3000 | 42 | 62 |  |  | 
18 | CCC(C)CC(=O)COS(=O)(=O)c1ccc(C)cc1 (stereo not drawn) [Compound 125] | > 3000 | 44 | 68 |  |  | 
19 | Cc1ccc(S(=O)(=O)OCC(=O)CCC(C)C)cc1 [Compound 126] | > 3000 | 47 | 61 |  |  | 
20 | CCCCC(C)C(=O)COS(=O)(=O)c1ccc(C)cc1 (stereo not drawn) [Compound 127] | > 3000 | 67 | 92 |  |  | 
21 | CCCCC(CCC)C(=O)COS(=O)(=O)c1ccc(C)cc1 (stereo not drawn) [Compound 128] | > 3000 | 51 | 62 |  |  | 
22 | CCOc1ccc(S(=O)(=O)OCC(=O)C(CC)CC)cc1 [Compound 131] | > 2000 | 97 | 110 |  |  | 
23 | CCOc1ccc(S(=O)(=O)OCC(=O)CC(C)C)cc1 [Compound 132] | > 2000 | 90 | 87 |  |  | 
